Measured values: the RepoRT retention time repository (doi:10.1021/es4044374)

Assay: RP, Waters XBridge C18, 50 × 2.1 mm, 3.5 µm, 30 °C, 0.2 mL/min, estimated dead time 0.55 min; A: water + 0.1% formic acid, pH 3; B: methanol + 0.1% formic acid, pH 3; gradient (min/%B) 0/10 4/50 17/95 25/95 25.1/10 30/10
Conditions: stereoisomer not certain

LC retention time [min]	Compound
4.4	c1ccc2n[nH]nc2c1 [1H-Benzotriazole]
1.7	O=c1ccn(C2OC(CO)C(O)C2(F)F)c(=O)[nH]1 (stereo not given) [2',2'-Difluoro-2'-deoxyuridine]
5.2	CC(=O)OC1C(C)OC(n2cc(F)c(N)nc2=O)C1OC(C)=O (stereo not given) [2',3'-di-O-acetyl-5'-deoxy-5-fluorocytidine]
4	NC(=O)c1c(Cl)cccc1Cl [2,6-Dichlorobenzamide]
1.2	O=S(=O)(O)c1ccc2ccc(S(=O)(=O)O)cc2c1 [2,7-Naphthalenedisulfonic acid]
2.7	Nc1nc2ccccc2[nH]1 [2-Aminobenzimidazole]
4.5	COC(=O)c1ccccc1S(N)(=O)=O [2-Aminosulfonyl-benzoic acid methyl ester]
1.7	COc1nc(C)nc(N)n1 [2-Methyl-4-amino-6-methoxy-s-triazine]
5.2	O=S(=O)(O)c1ccc2ccccc2c1 [2-Naphthalenesulfonic acid]
7.3	O=C(O)c1cc(Br)c(O)c(Br)c1 [3,5-Dibromo-4-hydroxybenzoic acid]
11.5	O=C(O)c1cccc(Oc2ccccc2)c1 [3-Phenoxybenzoic acid]
9.8	OCc1cccc(Oc2ccccc2)c1 [3-Phenoxybenzylalcohol]
15.3	CCCCCCCCn1sc(Cl)c(Cl)c1=O [4,5-Dichloro-2-n-octyl-3(2H)-isothiazolone (DCOIT)]
3.7	CC(=O)Nc1c(C)n(C)n(-c2ccccc2)c1=O [4-Acetamidoantipyrine]
2.6	Cc1c(N)c(=O)n(-c2ccccc2)n1C [4-Aminoantipyrine]
3.7	Cc1c(NC=O)c(=O)n(-c2ccccc2)n1C [4-Formylaminoantipyrine]
5.2	CC(C)c1ccc(N)cc1 [4-Isopropylaniline]
8.9	Oc1ccc(C(F)(F)F)cc1 [4-Trifluoromethylphenol]
1	O=c1[nH]cc(F)c(=O)[nH]1 [5-Fluorouracil]
5.8	Cc1ccc2n[nH]nc2c1 [5-Methyl-1H-benzotriazole]
13.6	O=C(O)C=C(F)C(F)(F)C(F)(F)C(F)(F)C(F)(F)C(F)(F)F [6:2 fluorotelomer unsaturated carboxylic acid]
16.1	O=C(O)C=C(F)C(F)(F)C(F)(F)C(F)(F)C(F)(F)C(F)(F)C(F)(F)C(F)(F)F [8:2 fluorotelomer unsaturated carboxylic acid]
6.1	NC(=O)N1c2ccccc2C(O)C(O)c2ccccc21 (stereo not drawn) [10,11-trans-Dihydroxy-10,11-dihydrocarbamazepine]

LC retention time [min]	Compound
1	CC(=O)NCCCS(=O)(=O)O [Acamprosate]
1.5	CC1=CC(=O)NS(=O)(=O)O1 [Acesulfame]
7.7	CCOCN(C(=O)CS(=O)(=O)O)c1c(C)cccc1CC [Acetochlor ESA]
7.5	CCOCN(C(=O)C(=O)O)c1c(C)cccc1CC [Acetochlor OXA]
7.7	CCc1cccc(CC)c1N(COC)C(=O)CS(=O)(=O)O [Alachlor ESA]
7.4	CCc1cccc(CC)c1N(COC)C(=O)C(=O)O [Alachlor OXA]
2	CC(C)(C)NCC(O)c1ccc(O)c(CO)c1 (stereo not given) [Albuterol]
2.6	Cc1c(N(C)C)c(=O)n(-c2ccccc2)n1C [Aminopyrine]
3.8	CCN1CCCC1CNC(=O)c1cc(S(=O)(=O)CC)c(N)cc1OC (stereo not given) [Amisulpride]
8.6	CN(C)CCC=C1c2ccccc2CCc2ccccc21 [Amitriptyline]
4.6	Cc1cc(=O)n(-c2ccccc2)n1C [Antipyrine]
4.8	COC(=O)C(Cc1ccccc1)NC(=O)C(N)CC(=O)O (stereo not given) [Aspartame]
3.8	CC(C)NCC(O)COc1ccc(CC(=O)O)cc1 (stereo not given) [Atenolol acid]
1	NCC(O)COc1ccc(CC(N)=O)cc1 (stereo not given) [Atenolol-desisopropyl]
2	CC(C)NCC(O)COc1ccc(CC(N)=O)cc1 (stereo not given) [Atenolol]
8	CNCCC(Oc1ccccc1C)c1ccccc1 (stereo not given) [Atomoxetine]
12.4	CC(C)c1c(C(=O)Nc2ccccc2)c(-c2ccccc2)c(-c2ccc(F)cc2)n1CCC(O)CC(O)CC(=O)O (stereo not given) [Atorvastatin]
1.4	CC(C)Nc1nc(N)[nH]c(=O)n1 [Atrazine-desethyl-2-hydroxy]
5.6	CC(C)Nc1nc(N)nc(Cl)n1 [Atrazine-desethyl]
4.3	CCNc1nc(N)nc(Cl)n1 [Atrazine-desisopropyl]
5.9	CCC1OC(=O)C(C)C(OC2CC(C)(OC)C(O)C(C)O2)C(C)C(OC2OC(C)CC(N(C)C)C2O)C(C)(O)CC(C)CN(C)C(C)C(O)C1(C)O (stereo not given) [Azithromycin]
8.8	COC=C(C(=O)O)c1ccccc1Oc1cc(Oc2ccccc2C#N)ncn1 [Azoxystrobin (free acid)]
5.1	O=c1[nH]sc2ccccc12 [Benzisothiazolone (BIT)]

Compound	LC retention time [min]
FC(F)(F)c1cccc(N2CCNCC2)c1 [1-(3-(Trifluoromethyl)phenyl)piperazine]	5.9
Clc1cccc(N2CCNCC2)c1 [1-(3-Chlorophenyl)piperazine]	5.2
c1ccc(CN2CCNCC2)cc1 [1-Benzylpiperazine]	1.2
O=C(O)COc1ccc(Cl)cc1Cl [2,4-D]	9.1
CCCCCCCCn1sccc1=O [2-Octyl-3(2H)-isothiazolone]	11.6
O=c1[nH]c(Cl)c(Cl)cc1Cl [3,5,6-Trichloro-2-pyridinol]	9.7
Oc1ccc(Cl)cc1 [4-Chlorophenol]	7.3
Cn1sc(Cl)cc1=O [5-Chloro-2-methyl-4-isothiazolin-3-one (CMI)]	3.7
CC(=NC#N)N(C)Cc1ccc(Cl)nc1 [Acetamiprid]	5.3
CCOCN(C(=O)CCl)c1c(C)cccc1CC [Acetochlor]	11.7
CCc1cccc(CC)c1N(COC)C(=O)CCl [Alachlor]	11.7
Cc1ccc(N=CN(C)C=Nc2ccc(C)cc2C)c(C)c1 [Amitraz]	15.4
CC(N)Cc1ccccc1 (stereo not given) [Amphetamine]	3.5
COC(=O)NS(=O)(=O)c1ccc(N)cc1 [Asulam]	2.4
CCNc1nc(NC(C)C)nc(OC)n1 [Atraton]	5.7
CCNc1nc(NC(C)C)[nH]c(=O)n1 [Atrazine-2-hydroxy]	4.4
CCNc1nc(Cl)nc(NC(C)C)n1 [Atrazine]	8.3
COC=C(C(=O)OC)c1ccccc1Oc1cc(Oc2ccccc2C#N)ncn1 [Azoxystrobin]	9.9
CC(C)N1C(=O)c2ccccc2NS1(=O)=O [Bentazone]	7.5
